Experimental data as given in publication PMC3071876 (Comparative biochemistry and physiology. Part B, …, 2011).
Read-outs that look alike come from different tables or passages of the source.

What was measured:
[1] = target: T1, zebrafish monoamine oxidase (zMAO) (Danio rerio, UniProt Q6NSN2); experiment: Reversible inhibition of zMAO with kynuramine as substrate; type: biochemical
T1 sequence (Q6NSN2 1-522): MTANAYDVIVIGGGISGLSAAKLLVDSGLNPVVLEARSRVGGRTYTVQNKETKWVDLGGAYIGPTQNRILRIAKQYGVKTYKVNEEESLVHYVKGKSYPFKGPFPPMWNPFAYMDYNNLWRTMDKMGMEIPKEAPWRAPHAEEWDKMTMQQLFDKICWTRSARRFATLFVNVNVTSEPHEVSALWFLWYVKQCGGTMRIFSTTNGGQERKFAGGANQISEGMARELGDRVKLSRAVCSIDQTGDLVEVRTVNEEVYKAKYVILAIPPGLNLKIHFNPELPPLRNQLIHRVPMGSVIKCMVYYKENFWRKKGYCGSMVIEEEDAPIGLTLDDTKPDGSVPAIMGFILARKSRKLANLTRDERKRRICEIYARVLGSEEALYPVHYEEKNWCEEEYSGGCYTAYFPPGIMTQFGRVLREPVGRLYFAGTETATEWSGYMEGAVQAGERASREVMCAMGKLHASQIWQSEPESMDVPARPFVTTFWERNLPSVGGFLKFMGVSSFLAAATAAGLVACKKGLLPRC

hMAO B [2] = target: T2, hMAO B (Homo sapiens, UniProt P27338); settings: cited from earlier work
T2 sequence (P27338 1-520): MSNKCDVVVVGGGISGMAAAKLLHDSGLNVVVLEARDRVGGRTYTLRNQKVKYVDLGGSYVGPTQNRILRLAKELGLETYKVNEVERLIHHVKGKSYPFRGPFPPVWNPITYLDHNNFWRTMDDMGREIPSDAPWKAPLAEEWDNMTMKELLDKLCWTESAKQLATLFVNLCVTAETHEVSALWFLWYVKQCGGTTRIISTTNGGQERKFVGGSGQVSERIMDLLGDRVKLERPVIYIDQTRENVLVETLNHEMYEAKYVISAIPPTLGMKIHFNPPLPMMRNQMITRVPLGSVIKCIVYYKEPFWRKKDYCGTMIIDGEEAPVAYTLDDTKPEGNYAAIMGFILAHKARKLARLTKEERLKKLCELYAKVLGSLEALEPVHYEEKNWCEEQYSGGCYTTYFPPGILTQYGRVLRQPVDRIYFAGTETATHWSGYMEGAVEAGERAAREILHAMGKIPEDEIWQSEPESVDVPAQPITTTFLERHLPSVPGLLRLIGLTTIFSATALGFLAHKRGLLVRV

hMAO A [3] = target: T3, hMAO A (Homo sapiens, UniProt P21397); settings: cited from earlier work; for Ki: hMAO A
T3 sequence (P21397 1-527): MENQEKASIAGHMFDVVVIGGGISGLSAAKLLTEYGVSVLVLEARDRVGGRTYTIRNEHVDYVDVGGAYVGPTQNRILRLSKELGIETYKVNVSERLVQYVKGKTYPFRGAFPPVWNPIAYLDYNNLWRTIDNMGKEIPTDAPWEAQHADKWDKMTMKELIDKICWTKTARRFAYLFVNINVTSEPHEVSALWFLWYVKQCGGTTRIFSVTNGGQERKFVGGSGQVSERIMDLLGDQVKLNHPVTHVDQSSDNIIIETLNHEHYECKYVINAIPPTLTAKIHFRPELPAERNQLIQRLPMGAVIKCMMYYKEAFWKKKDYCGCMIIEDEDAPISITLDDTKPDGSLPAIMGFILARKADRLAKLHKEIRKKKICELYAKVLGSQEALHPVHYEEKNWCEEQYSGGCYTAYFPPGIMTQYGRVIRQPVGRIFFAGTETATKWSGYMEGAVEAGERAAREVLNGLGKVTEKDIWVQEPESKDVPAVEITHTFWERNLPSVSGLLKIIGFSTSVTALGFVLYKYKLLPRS

[4] = target: T1, zebrafish monoamine oxidase (zMAO); experiment: Steady-state kinetics of zMAO-catalyzed amine substrate oxidation; type: biochemical; settings: for ^Dkcat: deuterium kinetic isotope effect; for kcat (H): air saturation (240 μM O2); for kcat (D): α,α-2[H] benzylamine analogue
hMAO A [5] = target: T3, hMAO A; settings: ref Li, cited from earlier work
hMAO B [6] = target: T2, hMAO B; experiment: Reversible inhibition of hMAO B; type: biochemical; settings: no reference mark, indole analogues tested up to 100 μM
hMAO B [7] = target: T2, hMAO B; settings: cited from earlier work; remark: listed apart in the source
[8] = substrate: NCCC(=O)c1ccccc1N; experiment: Steady-state kinetics of zMAO-catalyzed amine substrate oxidation; type: biochemical, Danio rerio; settings: other: zMAO, 25 °C, pH 7.4
[9] = substrate: NCCc1ccc(O)cc1; experiment: as above; type: biochemical, Danio rerio; settings: other: zMAO, 25 °C, pH 7.4
[10] = substrate: NCCCCc1ccccc1; experiment: as above; type: biochemical, Danio rerio; settings: other: zMAO, 25 °C, pH 7.4
[11] = substrate: NCc1ccccc1; experiment: as above; type: biochemical, Danio rerio; settings: other: zMAO, para-substituted benzylamine; pH 7.4; 25.0 °C
[12] = substrate: NCCc1ccc(O)c(O)c1; experiment: purified protein, by the assay type; settings: other: zMAO, 25 °C, pH 7.4
[13] = zMAO, hMAO B specific inhibitors (Table 3), kynuramine substrate
[14] = ref Nandigama and Edmondson (2000)
[15] = zMAO, hMAO A specific inhibitors (Table 2), kynuramine substrate
[16] = read-out: Km(H), zMAO, para-substituted benzylamine
[17] = zMAO, para-substituted benzylamine

With C(C=Cc1ccccc1)=Cc1ccccc1 [1,4-Diphenyl-1,3-Butadiene] the Ki [1, 13] was “No inhibition”.

For C(=CCc1ccccc1)Cc1ccccc1 [1,4-Diphenyl-2-Butene], the Ki [1, 13] was “No inhibition”.

For NCc1cccnc1 [3-Aminomethylpyridine], the kcat (hMAO B [2]; ref Li, (2006)) is listed as 223 ±5 ^c min^−1, the Ki (hMAO A [3]; competitive inhibitor, ref Li, (2006)) is listed as 5200 µM and the Substrate behaviour ([4]; zMAO) is listed as “Not a Substrate”.

Cn1c(=O)c2c(nc(C=Cc3cccc(Cl)c3)n2C)n(C)c1=O [8-(3-Chlorostyryl)-caffeine] gave a Ki [1] of 2.4 ± 0.6 µM.

In the case of NCCc1ccc(O)c(O)c1 [Dopamine], the Km (hMAO B [2]; [14]) is listed as 128 ± 15 µM, the kcat (hMAO B [2]; [14]) is listed as 65 ±12 ^b min^−1 and the kcat ([4]; zMAO, 25 °C, pH 7.4) is listed as 4.03 s⁻¹. The Km (hMAO A [5]; et al. (2002)) was 240 ± 42 µM and the kcat (hMAO A [5]; et al. (2002)) was 71 ±4 ^a min^−1.

In the case of CC(C)=CCC/C(C)=C/CC/C(C)=C/CO [Farnesol, trans-trans-farnesol], the Ki [1, 13] is reported as “No inhibition”.

Work on Cc1nccc2c1[nH]c1ccccc12 [Harmane] yielded a Ki [1] of 0.13 ± 0.02 µM.

For NCCC(=O)c1ccccc1N [Kynuramine], the kcat (hMAO B [2]; [14]) is given as 96 ±11 ^b min^−1, the kcat ([4]; zMAO, 25 °C, pH 7.4) is given as 1.25 s⁻¹ and the kcat (hMAO A [5]; et al. (2002)) is given as 125 ±8 ^a min^−1.

For CS(=O)(=O)O.Cc1ccc2c(c1)c1c3n2CCNC3CCC1 (stereo not drawn) [Pirlindole Mesylate], the Ki (hMAO B [6]) is listed as “No Inhibition”, the Ki (hMAO A [3]; ref Wang, et al. (2009)) is listed as 0.92 ± 0.04 µM and the Ki [1, 15] is listed as 2.4 ± 0.4 µM.

With C[C@H](NCc1ccc(OCc2cccc(F)c2)cc1)C(N)=O [Safinamide] the Ki [1, 13] was “No inhibition”.

For NCCc1c[nH]c2ccc(O)cc12 [Serotonin], the Km (hMAO B [2]; [14]) is given as 2270 ± 310 µM and the Km (hMAO A [5]; et al. (2002)) is given as 295 ± 46 µM.

In the case of CS(=O)(=O)O.c1cc2c(cc1C1CCCCC1)c1c3n2CCNC3CCC1 (stereo not drawn) [Tetrindole Mesylate], the Ki (hMAO B [6]) is listed as “No Inhibition”, the Ki (hMAO A [3]; ref Wang, et al. (2009)) is listed as 5.3 ± 0.2 µM and the Ki [1, 15] is listed as 34.1 ± 2 µM.

In the case of NCCc1ccc(O)cc1 [Tyramine], the kcat ([4]; zMAO, 25 °C, pH 7.4) is given as 7.78 s⁻¹, the kcat (hMAO A [5]; (2006), listed as tyramine) is given as 182 min⁻¹ and the Km (hMAO A [5]; (2006)) is given as 427 ± 18 µM. The kcat (hMAO A [5]; (2006)) was 182 ±26 ^c min^−1.

For C[C@H](N)Cc1ccccc1 [d-Amphetamine], the Ki (hMAO B [7]; hMAO B, ref Li, (2006)) is listed as 280 ± 10 µM, the Mode of inhibition (hMAO B [7]; human MAO B, depending on the substrate, ref Pearce and Roth, 1985) is listed as “either as a competitive or as a mixed inhibitor” and the Mode of inhibition (hMAO A [3]; human MAO A, ref Vintém et al., 2005) is listed as “competitively inhibits”. For the same molecule, the Mode of inhibition ([1]; zMAO catalyzed kynuramine oxidation) was “uncompetitive inhibitor” and the Ki [1, 15] was 38 ± 5.1 µM.

In the case of NCc1ccc(Br)cc1 [p-Br], the Km [4, 16] is reported as 103 ± 20 µM, the “^Dkcat” value ([4]; zMAO) is reported as 8.2 ± 0.7 min⁻¹ and the “kcat (H)” value [4, 17] is reported as 0.667 ± 0.05 s⁻¹. For the same molecule, the “kcat (D)” value ([4]; zMAO) was 0.0813 ± 0.00283 s⁻¹.

For NCc1ccc(C(F)(F)F)cc1 [p-CF3], the Km [4, 16] was 115 ± 36 µM, the “^Dkcat” value ([4]; zMAO) was 4.2 ± 0.3 min⁻¹ and the “kcat (H)” value [4, 17] was 1.57 ± 0.12 s⁻¹. The “kcat (D)” value ([4]; zMAO) was 0.375 ± 0.025 s⁻¹.

With NCc1ccc(Cl)cc1 [p-CI] the Km [4, 16] was 94 ± 10 µM, the “^Dkcat” value ([4]; zMAO) was 5.9 ± .2 min⁻¹ and the “kcat (H)” value [4, 17] was 0.583 ± 0.017 s⁻¹. The “kcat (D)” value ([4]; zMAO) was 0.0983 ± 0.00283 s⁻¹.

In the case of NCc1ccc(C(=O)O)cc1 [p-Carboxybenzylamine], the Km ([4]; zMAO, 25 °C, pH 7.4) is reported as 76 ± 8 µM and the kcat ([4]; zMAO, 25 °C, pH 7.4) is reported as 0.0883 ± 0.0033 s⁻¹.

In the case of NCc1ccc(F)cc1 [p-F], the Km [4, 16] is reported as 161 ± 8 µM, the “^Dkcat” value ([4]; zMAO) is reported as 6.7 ± 0.2 min⁻¹ and the “kcat (H)” value [4, 17] is reported as 0.248 ± 0.005 s⁻¹. For the same molecule, the “kcat (D)” value ([4]; zMAO) was 0.0372 ± 0.00083 s⁻¹.

For NCc1ccccc1 [p-H, benzylamine], the Kd [4] was 3.3 µM, the “^Dkcat” value ([4]; zMAO) was 2.0 ± 0.2 min⁻¹ and the “kcat (D)” value ([4]; zMAO) was 0.039 ± 0.00333 s⁻¹.

In the case of COc1ccc(CN)cc1 [p-MeO], the Km [4, 16] is reported as 55.5 ± 4.1 µM, the “^Dkcat” value ([4]; zMAO) is reported as 5.9 ± 0.7 min⁻¹ and the “kcat (H)” value [4, 17] is reported as 0.138 ± 0.012 s⁻¹. The “kcat (D)” value ([4]; zMAO) was 0.0237 ± 0.00083 s⁻¹.

With Cc1ccc(CN)cc1 [p-Me] the Km [4, 16] was 67.8 ± 4.1 µM, the “^Dkcat” value ([4]; zMAO) was 6.4 ± 0.2 min⁻¹ and the “kcat (H)” value [4, 17] was 0.115 ± 0.0017 s⁻¹. The “kcat (D)” value ([4]; zMAO) was 0.018 ± 0.00033 s⁻¹.

In the case of CC(C)(C)c1ccc(CN)cc1 [p-t-Butyl], the Km [4, 16] is reported as 48 ± 6 µM, the “^Dkcat” value ([4]; zMAO) is reported as 2.0 ± 0.1 min⁻¹ and the “kcat (H)” value [4, 17] is reported as 0.115 ± 0.0033 s⁻¹. The “kcat (D)” value ([4]; zMAO) was 0.0567 ± 0.0033 s⁻¹.

B1: zebrafish monoamine oxidase (zMAO) (Danio rerio) (protein)
chain: T1 sequence (Q6NSN2 1-522)
Work on B1 yielded a Km [8] of 58 ± 5 µM, a kcat [8] of 1.25 ± 0.0333 s⁻¹ and a Km [9] of 18 ± 3 µM. It also gave a kcat [9] of 7.78 ± 0.333 s⁻¹, a Km [10] of 185 ± 17 µM and a kcat [10] of 2.07 ± 0.0667 s⁻¹. It also gave a kcat/Km [10] of 11200 M⁻¹ s⁻¹, a Km [11] of 82.2 ± 9.0 µM and a kcat [11] of 0.0783 ± 0.0017 s⁻¹. For the same molecule, the Km [12] was 88 ± 14 µM and the kcat [12] was 4.03 s⁻¹.
